Converted amounts (≈) assume the structure as drawn.
Test system: Klebsiella pneumoniae
Test: Antimicrobial activity against Klebsiella pneumoniae containing PFGE clone B expressing beta-lactamase Oxa-48, TEM-1, CTX-M-15 and Oxa-1 by Etest
Type: functional

Question: For `C[C@@H](O)[C@H]1C(=O)N2C(C(=O)O)=C(S[C@@H]3CN[C@H](C(=O)Nc4cccc(C(=O)O)c4)C3)[C@H](C)[C@H]12`, which MIC is on record?
Answer: > 32 µg/mL

Question: For `NCC[C@H](O)C(=O)N[C@@H]1C[C@H](N)[C@@H](O[C@H]2O[C@H](CN)[C@@H](O)[C@H](O)[C@H]2O)[C@H](O)[C@H]1O[C@H]1O[C@H](CO)[C@@H](O)[C@H](N)[C@H]1O` [AMIKACIN], which MIC is on record?
Answer: 2 µg/mL (≈ 3.42 µM)

Question: `CC1(C)S[C@@H]2[C@H](NC(=O)[C@H](N)c3ccc(O)cc3)C(=O)N2[C@H]1C(=O)O` [AMOXICILLIN] was tested. Which MIC did it give?
Answer: > 512 µg/mL

Question: Which MIC does the source give for `CO/N=C(\C(=O)N[C@@H]1C(=O)N2C(C(=O)O)=C(COC(C)=O)CS[C@H]12)c1csc(N)n1` [CEFOTAXIME] here?
Answer: > 512 µg/mL

Question: For `CO[C@@]1(NC(=O)Cc2cccs2)C(=O)N2C(C(=O)O)=C(COC(N)=O)CS[C@@H]21` [CEFOXITIN], which MIC is on record?
Answer: > 32 µg/mL

Test system: Klebsiella pneumoniae
Test: Antimicrobial activity against Klebsiella pneumoniae isolate 21 expressing beta-lactamase Oxa-48, TEM-1 and Oxa-9 by Etest in presence of beta-lactamase inhibitor clavulanic acid
Type: functional

Question: For `CC1(C)S[C@@H]2[C@H](NC(=O)[C@H](N)c3ccc(O)cc3)C(=O)N2[C@H]1C(=O)O` [AMOXICILLIN], which MIC is on record?
Answer: > 512 µg/mL

Test system: Escherichia coli
Test: Antimicrobial activity against Escherichia coli J53 harboring beta-lactamase TEM-1, SHV-12 and Oxa-9 by Etest
Type: functional

Question: For `CC1(C)S[C@@H]2[C@H](NC(=O)[C@H](N)c3ccc(O)cc3)C(=O)N2[C@H]1C(=O)O` [AMOXICILLIN], which MIC is on record?
Answer: > 512 µg/mL

Question: With `CO/N=C(\C(=O)N[C@@H]1C(=O)N2C(C(=O)O)=C(COC(C)=O)CS[C@H]12)c1csc(N)n1` [CEFOTAXIME] as the molecule, how does the MIC read?
Answer: 4 µg/mL (≈ 8.78 µM)

Question: How did the MIC turn out when `CO[C@@]1(NC(=O)Cc2cccs2)C(=O)N2C(C(=O)O)=C(COC(N)=O)CS[C@@H]21` [CEFOXITIN] was run?
Answer: 2 µg/mL (≈ 4.68 µM)

Test system: Escherichia coli
Test: Antimicrobial activity against Escherichia coli J53 harboring beta-lactamase Oxa-48 by Etest
Type: functional

Question: Which MIC does the source give for `C[C@@H](O)[C@H]1C(=O)N2C(C(=O)O)=C(S[C@@H]3CN[C@H](C(=O)Nc4cccc(C(=O)O)c4)C3)[C@H](C)[C@H]12` here?
Answer: 0.25 µg/mL (≈ 0.526 µM)

Question: Which MIC does the source give for `CC1(C)S[C@@H]2[C@H](NC(=O)[C@H](N)c3ccc(O)cc3)C(=O)N2[C@H]1C(=O)O` [AMOXICILLIN] here?
Answer: > 512 µg/mL

Question: For `CO/N=C(\C(=O)N[C@@H]1C(=O)N2C(C(=O)O)=C(COC(C)=O)CS[C@H]12)c1csc(N)n1` [CEFOTAXIME], which MIC is on record?
Answer: 0.5 µg/mL (≈ 1.1 µM)

Question: Which MIC does the source give for `CO[C@@]1(NC(=O)Cc2cccs2)C(=O)N2C(C(=O)O)=C(COC(N)=O)CS[C@@H]21` [CEFOXITIN] here?
Answer: 4 µg/mL (≈ 9.36 µM)

Test system: Escherichia coli
Test: Antimicrobial activity against Escherichia coli J53 by Etest
Type: functional

Question: Which MIC does the source give for `C[C@@H](O)[C@H]1C(=O)N2C(C(=O)O)=C(S[C@@H]3CN[C@H](C(=O)Nc4cccc(C(=O)O)c4)C3)[C@H](C)[C@H]12` here?
Answer: < 1 µg/mL

Question: For `CC1(C)S[C@@H]2[C@H](NC(=O)[C@H](N)c3ccc(O)cc3)C(=O)N2[C@H]1C(=O)O` [AMOXICILLIN], which MIC is on record?
Answer: 1 µg/mL (≈ 2.74 µM)

Question: Which MIC does the source give for `CO/N=C(\C(=O)N[C@@H]1C(=O)N2C(C(=O)O)=C(COC(C)=O)CS[C@H]12)c1csc(N)n1` [CEFOTAXIME] here?
Answer: 0.5 µg/mL (≈ 1.1 µM)

Question: Which MIC does the source give for `CO[C@@]1(NC(=O)Cc2cccs2)C(=O)N2C(C(=O)O)=C(COC(N)=O)CS[C@@H]21` [CEFOXITIN] here?
Answer: 4 µg/mL (≈ 9.36 µM)

Test system: Klebsiella pneumoniae
Test: Antimicrobial activity against Klebsiella pneumoniae isolate 11 expressing beta-lactamase Oxa-48, TEM-1 and Oxa-1 by Etest in presence of beta-lactamase inhibitor clavulanic acid
Type: functional

Question: With `CC1(C)S[C@@H]2[C@H](NC(=O)[C@H](N)c3ccc(O)cc3)C(=O)N2[C@H]1C(=O)O` [AMOXICILLIN] as the molecule, how does the MIC read?
Answer: > 512 µg/mL

Test system: Escherichia coli
Test: Antimicrobial activity against Escherichia coli J53 harboring beta-lactamase Oxa-48 by Etest in presence of beta-lactamase inhibitor clavulanic acid
Type: functional

Question: `CC1(C)S[C@@H]2[C@H](NC(=O)[C@H](N)c3ccc(O)cc3)C(=O)N2[C@H]1C(=O)O` [AMOXICILLIN] was tested. Which MIC did it give?
Answer: > 512 µg/mL

Test system: Escherichia coli
Test: Antimicrobial activity against Escherichia coli J53 harboring beta-lactamase TEM-1, CTX-M-15 and Oxa-1 by Etest
Type: functional

Question: With `CC1(C)S[C@@H]2[C@H](NC(=O)[C@H](N)c3ccc(O)cc3)C(=O)N2[C@H]1C(=O)O` [AMOXICILLIN] as the molecule, how does the MIC read?
Answer: > 512 µg/mL

Question: `CO/N=C(\C(=O)N[C@@H]1C(=O)N2C(C(=O)O)=C(COC(C)=O)CS[C@H]12)c1csc(N)n1` [CEFOTAXIME] was tested. Which MIC did it give?
Answer: > 32 µg/mL

Question: `CO[C@@]1(NC(=O)Cc2cccs2)C(=O)N2C(C(=O)O)=C(COC(N)=O)CS[C@@H]21` [CEFOXITIN] was tested. Which MIC did it give?
Answer: 2 µg/mL (≈ 4.68 µM)

Test system: Klebsiella pneumoniae
Test: Antimicrobial activity against Klebsiella pneumoniae isolate 21 expressing beta-lactamase Oxa-48, TEM-1 and Oxa-9 by Etest
Type: functional

Question: `C[C@@H](O)[C@H]1C(=O)N2C(C(=O)O)=C(S[C@@H]3CN[C@H](C(=O)Nc4cccc(C(=O)O)c4)C3)[C@H](C)[C@H]12` was tested. Which MIC did it give?
Answer: > 32 µg/mL

Question: With `CC1(C)S[C@@H]2[C@H](NC(=O)[C@H](N)c3ccc(O)cc3)C(=O)N2[C@H]1C(=O)O` [AMOXICILLIN] as the molecule, how does the MIC read?
Answer: > 512 µg/mL

Question: `CO/N=C(\C(=O)N[C@@H]1C(=O)N2C(C(=O)O)=C(COC(C)=O)CS[C@H]12)c1csc(N)n1` [CEFOTAXIME] was tested. Which MIC did it give?
Answer: 4 µg/mL (≈ 8.78 µM)

Question: Which MIC does the source give for `CO[C@@]1(NC(=O)Cc2cccs2)C(=O)N2C(C(=O)O)=C(COC(N)=O)CS[C@@H]21` [CEFOXITIN] here?
Answer: > 32 µg/mL

Test system: Escherichia coli
Test: Antimicrobial activity against Escherichia coli J53 by Etest in presence of beta-lactamase inhibitor clavulanic acid
Type: functional

Question: Which MIC does the source give for `CC1(C)S[C@@H]2[C@H](NC(=O)[C@H](N)c3ccc(O)cc3)C(=O)N2[C@H]1C(=O)O` [AMOXICILLIN] here?
Answer: 1 µg/mL

Test system: Escherichia coli
Test: Antimicrobial activity against Escherichia coli J53 harboring beta-lactamase TEM-1, SHV-12 and Oxa-9 by Etest in presence of beta-lactamase inhibitor clavulanic acid
Type: functional

Question: Which MIC does the source give for `CC1(C)S[C@@H]2[C@H](NC(=O)[C@H](N)c3ccc(O)cc3)C(=O)N2[C@H]1C(=O)O` [AMOXICILLIN] here?
Answer: > 512 µg/mL

Test system: Escherichia coli
Test: Antimicrobial activity against Escherichia coli J53 harboring beta-lactamase TEM-1, CTX-M-15 and Oxa-1 by Etest in presence of beta-lactamase inhibitor clavulanic acid
Type: functional

Question: With `CC1(C)S[C@@H]2[C@H](NC(=O)[C@H](N)c3ccc(O)cc3)C(=O)N2[C@H]1C(=O)O` [AMOXICILLIN] as the molecule, how does the MIC read?
Answer: > 513 µg/mL

Test system: Klebsiella pneumoniae
Test: Antimicrobial activity against Klebsiella pneumoniae isolate 11 expressing beta-lactamase Oxa-48, TEM-1 and Oxa-1 by Etest
Type: functional

Question: Which MIC does the source give for `C[C@@H](O)[C@H]1C(=O)N2C(C(=O)O)=C(S[C@@H]3CN[C@H](C(=O)Nc4cccc(C(=O)O)c4)C3)[C@H](C)[C@H]12` here?
Answer: > 32 µg/mL

Question: For `CC1(C)S[C@@H]2[C@H](NC(=O)[C@H](N)c3ccc(O)cc3)C(=O)N2[C@H]1C(=O)O` [AMOXICILLIN], which MIC is on record?
Answer: > 512 µg/mL

Question: For `CO/N=C(\C(=O)N[C@@H]1C(=O)N2C(C(=O)O)=C(COC(C)=O)CS[C@H]12)c1csc(N)n1` [CEFOTAXIME], which MIC is on record?
Answer: 4 µg/mL (≈ 8.78 µM)

Question: For `CO[C@@]1(NC(=O)Cc2cccs2)C(=O)N2C(C(=O)O)=C(COC(N)=O)CS[C@@H]21` [CEFOXITIN], which MIC is on record?
Answer: 16 µg/mL (≈ 37.4 µM)

Test system: Klebsiella pneumoniae
Test: Antimicrobial activity against Klebsiella pneumoniae containing PFGE clone A expressing beta-lactamase Oxa-48, TEM-1, SHV-12 and Oxa-9 by Etest in presence of beta-lactamase inhibitor clavulanic acid
Type: functional

Question: `CC1(C)S[C@@H]2[C@H](NC(=O)[C@H](N)c3ccc(O)cc3)C(=O)N2[C@H]1C(=O)O` [AMOXICILLIN] was tested. Which MIC did it give?
Answer: > 512 µg/mL

Test system: Klebsiella pneumoniae
Test: Antimicrobial activity against Klebsiella pneumoniae containing PFGE clone B expressing beta-lactamase Oxa-48, TEM-1, CTX-M-15 and Oxa-1 by Etest in presence of beta-lactamase inhibitor clavulanic acid
Type: functional

Question: With `CC1(C)S[C@@H]2[C@H](NC(=O)[C@H](N)c3ccc(O)cc3)C(=O)N2[C@H]1C(=O)O` [AMOXICILLIN] as the molecule, how does the MIC read?
Answer: > 512 µg/mL

Test system: Klebsiella pneumoniae
Test: Antimicrobial activity against Klebsiella pneumoniae containing PFGE clone A expressing beta-lactamase Oxa-48, TEM-1, SHV-12 and Oxa-9 by Etest
Type: functional

Question: For `C[C@@H](O)[C@H]1C(=O)N2C(C(=O)O)=C(S[C@@H]3CN[C@H](C(=O)Nc4cccc(C(=O)O)c4)C3)[C@H](C)[C@H]12`, which MIC is on record?
Answer: > 32 µg/mL

Question: `NCC[C@H](O)C(=O)N[C@@H]1C[C@H](N)[C@@H](O[C@H]2O[C@H](CN)[C@@H](O)[C@H](O)[C@H]2O)[C@H](O)[C@H]1O[C@H]1O[C@H](CO)[C@@H](O)[C@H](N)[C@H]1O` [AMIKACIN] was tested. Which MIC did it give?
Answer: 16 µg/mL (≈ 27.3 µM)

Question: Which MIC does the source give for `CC1(C)S[C@@H]2[C@H](NC(=O)[C@H](N)c3ccc(O)cc3)C(=O)N2[C@H]1C(=O)O` [AMOXICILLIN] here?
Answer: > 512 µg/mL

Question: `CO/N=C(\C(=O)N[C@@H]1C(=O)N2C(C(=O)O)=C(COC(C)=O)CS[C@H]12)c1csc(N)n1` [CEFOTAXIME] was tested. Which MIC did it give?
Answer: > 512 µg/mL

Question: With `CO[C@@]1(NC(=O)Cc2cccs2)C(=O)N2C(C(=O)O)=C(COC(N)=O)CS[C@@H]21` [CEFOXITIN] as the molecule, how does the MIC read?
Answer: 16 µg/mL (≈ 37.4 µM)
